Experimental data taken from paper PMC4146346 (Journal of cellular physiology, 2012).

Assays:
Assay in all cases: whole-cell patch clamp in HEK-293
Type in all cases: cell-based
CaV3.1 (α1G) = CaV3.1 (α1G) (Homo sapiens, UniProt O43497)
CaV3.3 (α1I) = CaV3.3 (α1I) (Homo sapiens, UniProt Q9P0X4)
CaV3.2 (α1H) = CaV3.2 (α1H) (Homo sapiens, UniProt O95180)
Sequence of CaV3.2 (α1H) (O95180 whole entry): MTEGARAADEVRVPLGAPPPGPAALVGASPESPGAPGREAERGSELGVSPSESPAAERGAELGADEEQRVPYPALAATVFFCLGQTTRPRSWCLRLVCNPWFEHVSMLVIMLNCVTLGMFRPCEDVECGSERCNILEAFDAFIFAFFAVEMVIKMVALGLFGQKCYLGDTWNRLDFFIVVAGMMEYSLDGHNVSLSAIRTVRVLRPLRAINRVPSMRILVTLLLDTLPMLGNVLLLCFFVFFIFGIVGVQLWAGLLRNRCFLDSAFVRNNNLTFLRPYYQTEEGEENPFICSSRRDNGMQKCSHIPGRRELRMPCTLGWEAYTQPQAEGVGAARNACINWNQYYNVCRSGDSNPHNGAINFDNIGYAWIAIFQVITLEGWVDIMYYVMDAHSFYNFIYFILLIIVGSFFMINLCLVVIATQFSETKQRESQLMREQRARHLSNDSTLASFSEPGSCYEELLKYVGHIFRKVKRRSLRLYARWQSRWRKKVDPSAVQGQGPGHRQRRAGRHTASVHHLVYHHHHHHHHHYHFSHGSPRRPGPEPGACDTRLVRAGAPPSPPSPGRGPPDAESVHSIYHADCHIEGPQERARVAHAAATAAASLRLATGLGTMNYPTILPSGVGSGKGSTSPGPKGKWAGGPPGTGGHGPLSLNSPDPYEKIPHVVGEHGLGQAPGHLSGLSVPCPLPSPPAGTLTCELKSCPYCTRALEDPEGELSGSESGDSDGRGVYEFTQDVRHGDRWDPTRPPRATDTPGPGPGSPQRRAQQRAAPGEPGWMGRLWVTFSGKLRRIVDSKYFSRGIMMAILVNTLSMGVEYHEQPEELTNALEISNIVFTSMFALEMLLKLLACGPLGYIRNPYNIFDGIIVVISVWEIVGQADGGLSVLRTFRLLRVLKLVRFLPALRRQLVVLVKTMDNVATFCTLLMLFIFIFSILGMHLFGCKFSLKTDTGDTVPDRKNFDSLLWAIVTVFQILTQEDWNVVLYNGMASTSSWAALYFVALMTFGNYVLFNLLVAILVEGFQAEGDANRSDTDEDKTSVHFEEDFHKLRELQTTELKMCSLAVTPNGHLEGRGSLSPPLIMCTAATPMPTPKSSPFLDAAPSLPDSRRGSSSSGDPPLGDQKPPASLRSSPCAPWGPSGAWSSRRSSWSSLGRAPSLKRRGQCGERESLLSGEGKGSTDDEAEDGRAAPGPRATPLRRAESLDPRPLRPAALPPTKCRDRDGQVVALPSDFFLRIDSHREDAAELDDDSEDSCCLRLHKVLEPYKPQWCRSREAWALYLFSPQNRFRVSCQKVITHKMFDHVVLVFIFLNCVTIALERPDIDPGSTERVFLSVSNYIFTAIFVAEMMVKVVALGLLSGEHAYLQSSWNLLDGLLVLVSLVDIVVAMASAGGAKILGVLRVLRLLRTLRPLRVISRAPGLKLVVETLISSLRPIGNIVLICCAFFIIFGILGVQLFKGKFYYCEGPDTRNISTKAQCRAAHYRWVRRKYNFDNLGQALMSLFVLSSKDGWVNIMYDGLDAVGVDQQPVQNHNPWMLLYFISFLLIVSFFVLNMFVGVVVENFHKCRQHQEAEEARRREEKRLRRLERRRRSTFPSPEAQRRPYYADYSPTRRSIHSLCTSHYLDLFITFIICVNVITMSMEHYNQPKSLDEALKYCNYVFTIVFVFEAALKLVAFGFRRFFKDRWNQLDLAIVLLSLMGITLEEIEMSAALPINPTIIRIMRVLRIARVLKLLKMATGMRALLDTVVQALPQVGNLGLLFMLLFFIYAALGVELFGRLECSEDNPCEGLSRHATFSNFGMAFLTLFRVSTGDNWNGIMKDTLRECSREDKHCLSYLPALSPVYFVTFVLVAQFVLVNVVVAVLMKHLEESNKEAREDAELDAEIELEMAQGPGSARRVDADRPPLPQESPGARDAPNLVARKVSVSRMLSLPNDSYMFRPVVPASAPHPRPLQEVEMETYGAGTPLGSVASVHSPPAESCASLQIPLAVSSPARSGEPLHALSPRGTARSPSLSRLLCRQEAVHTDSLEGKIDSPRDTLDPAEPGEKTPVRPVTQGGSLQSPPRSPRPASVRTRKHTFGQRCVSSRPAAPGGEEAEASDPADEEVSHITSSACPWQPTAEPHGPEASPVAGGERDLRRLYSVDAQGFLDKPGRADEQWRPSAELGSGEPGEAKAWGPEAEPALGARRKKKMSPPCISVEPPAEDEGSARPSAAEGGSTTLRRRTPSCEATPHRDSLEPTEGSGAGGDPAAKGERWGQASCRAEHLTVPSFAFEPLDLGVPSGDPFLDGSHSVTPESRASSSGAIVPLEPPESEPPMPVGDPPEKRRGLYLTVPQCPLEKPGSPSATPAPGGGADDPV

Sequence of CaV3.1 (α1G) (O43497 whole entry): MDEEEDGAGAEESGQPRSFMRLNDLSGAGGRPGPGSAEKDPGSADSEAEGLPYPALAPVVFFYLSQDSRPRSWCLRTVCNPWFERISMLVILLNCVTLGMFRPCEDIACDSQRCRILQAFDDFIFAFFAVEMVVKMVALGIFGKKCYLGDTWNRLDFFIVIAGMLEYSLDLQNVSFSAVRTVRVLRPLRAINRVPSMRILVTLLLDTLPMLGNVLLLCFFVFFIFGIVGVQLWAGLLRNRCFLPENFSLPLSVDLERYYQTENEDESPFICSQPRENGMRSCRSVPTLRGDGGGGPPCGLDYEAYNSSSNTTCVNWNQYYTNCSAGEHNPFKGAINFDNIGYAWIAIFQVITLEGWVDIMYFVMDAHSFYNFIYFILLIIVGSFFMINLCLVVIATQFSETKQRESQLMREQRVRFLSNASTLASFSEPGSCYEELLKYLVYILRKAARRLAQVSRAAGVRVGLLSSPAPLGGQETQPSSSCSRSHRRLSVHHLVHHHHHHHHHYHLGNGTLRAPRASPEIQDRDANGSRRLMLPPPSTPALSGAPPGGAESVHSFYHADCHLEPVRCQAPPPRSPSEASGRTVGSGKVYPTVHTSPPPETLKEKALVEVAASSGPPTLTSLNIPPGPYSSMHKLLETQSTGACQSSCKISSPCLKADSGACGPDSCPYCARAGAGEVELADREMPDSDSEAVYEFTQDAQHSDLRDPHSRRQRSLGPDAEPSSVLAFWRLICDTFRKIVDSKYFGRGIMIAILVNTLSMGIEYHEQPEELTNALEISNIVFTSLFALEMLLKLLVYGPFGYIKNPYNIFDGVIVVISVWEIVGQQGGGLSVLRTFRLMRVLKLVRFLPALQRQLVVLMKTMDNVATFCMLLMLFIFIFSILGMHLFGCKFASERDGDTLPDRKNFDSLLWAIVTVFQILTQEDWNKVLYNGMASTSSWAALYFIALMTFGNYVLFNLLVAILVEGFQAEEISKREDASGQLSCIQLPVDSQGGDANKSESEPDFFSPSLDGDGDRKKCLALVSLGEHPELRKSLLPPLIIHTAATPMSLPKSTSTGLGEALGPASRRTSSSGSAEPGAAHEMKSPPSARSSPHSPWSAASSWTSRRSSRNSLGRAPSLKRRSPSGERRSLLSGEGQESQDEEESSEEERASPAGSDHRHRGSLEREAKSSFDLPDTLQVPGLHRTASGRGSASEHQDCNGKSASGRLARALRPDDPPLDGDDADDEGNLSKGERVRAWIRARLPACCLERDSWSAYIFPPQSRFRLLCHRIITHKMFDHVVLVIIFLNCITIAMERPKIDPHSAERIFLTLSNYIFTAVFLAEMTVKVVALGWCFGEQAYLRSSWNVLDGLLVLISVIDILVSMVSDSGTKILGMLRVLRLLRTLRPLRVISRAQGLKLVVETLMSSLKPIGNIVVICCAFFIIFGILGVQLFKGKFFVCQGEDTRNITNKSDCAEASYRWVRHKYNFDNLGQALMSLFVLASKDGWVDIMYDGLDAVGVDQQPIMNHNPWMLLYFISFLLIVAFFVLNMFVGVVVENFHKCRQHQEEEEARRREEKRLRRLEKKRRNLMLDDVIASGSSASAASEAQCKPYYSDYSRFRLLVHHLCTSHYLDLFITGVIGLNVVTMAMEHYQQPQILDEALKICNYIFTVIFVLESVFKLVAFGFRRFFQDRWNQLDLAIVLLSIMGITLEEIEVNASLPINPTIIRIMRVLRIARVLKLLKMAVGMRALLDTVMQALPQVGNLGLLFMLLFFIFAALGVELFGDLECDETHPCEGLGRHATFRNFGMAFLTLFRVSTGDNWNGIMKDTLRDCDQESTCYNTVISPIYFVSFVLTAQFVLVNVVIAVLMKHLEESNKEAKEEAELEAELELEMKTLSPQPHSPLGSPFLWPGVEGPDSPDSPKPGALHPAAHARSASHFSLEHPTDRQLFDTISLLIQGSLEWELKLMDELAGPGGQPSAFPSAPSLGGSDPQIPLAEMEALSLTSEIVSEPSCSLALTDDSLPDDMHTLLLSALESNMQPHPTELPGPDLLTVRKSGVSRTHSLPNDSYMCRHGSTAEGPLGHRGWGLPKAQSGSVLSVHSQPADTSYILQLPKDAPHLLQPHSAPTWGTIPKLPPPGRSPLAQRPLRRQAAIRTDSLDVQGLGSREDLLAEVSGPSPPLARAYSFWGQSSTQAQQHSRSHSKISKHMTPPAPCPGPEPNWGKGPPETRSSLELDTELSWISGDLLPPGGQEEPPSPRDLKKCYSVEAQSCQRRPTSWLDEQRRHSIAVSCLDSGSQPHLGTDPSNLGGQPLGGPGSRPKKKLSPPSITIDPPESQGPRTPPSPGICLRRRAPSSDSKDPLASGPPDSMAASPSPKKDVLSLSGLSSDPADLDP

Kd (CaV3.1 (α1G)): 78.4 µM
Kd (CaV3.3 (α1I)): 137 µM
Kd (CaV3.2 (α1H)): 192 µM
SMILES: O=C(O)c1cccnc1Nc1cccc(C(F)(F)F)c1 [NA, 2-{[3-(trifluoromethyl)phenyl]amino}-pyridine-3-carboxylic acid]
